Reference: publication PMC11451537, “P2X7 receptors exhibit at least three modes of allosteric antagonism” (Science Advances, 2024)
Substitutions are numbered along the chain they refer to.

Experiments:
[1] = biological target: T1, rP2X7-F88A (Rattus norvegicus, UniProt Q64663, F88A); test: TEVC inhibition dose-response, rP2X7-F88A mutant; format: cell-based; conditions: read-out: IC50 (inhibitory potency), F88A
T1 sequence (Q64663 1-595 F88A): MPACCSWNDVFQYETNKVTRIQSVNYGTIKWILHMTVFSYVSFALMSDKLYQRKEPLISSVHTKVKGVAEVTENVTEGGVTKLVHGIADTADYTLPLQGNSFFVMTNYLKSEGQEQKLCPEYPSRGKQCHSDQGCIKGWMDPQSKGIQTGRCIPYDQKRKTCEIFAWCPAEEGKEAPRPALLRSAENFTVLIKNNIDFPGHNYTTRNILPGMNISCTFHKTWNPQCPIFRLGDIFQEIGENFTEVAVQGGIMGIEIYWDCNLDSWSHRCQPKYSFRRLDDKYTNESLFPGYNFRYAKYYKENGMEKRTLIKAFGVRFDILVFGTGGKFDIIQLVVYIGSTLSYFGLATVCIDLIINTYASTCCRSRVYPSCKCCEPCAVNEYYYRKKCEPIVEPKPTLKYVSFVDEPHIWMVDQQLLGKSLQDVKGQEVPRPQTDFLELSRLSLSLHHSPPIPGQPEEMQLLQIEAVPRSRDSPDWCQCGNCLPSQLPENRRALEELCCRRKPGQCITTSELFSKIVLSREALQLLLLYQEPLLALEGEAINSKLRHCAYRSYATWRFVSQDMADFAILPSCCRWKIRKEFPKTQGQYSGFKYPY
Description: Structural determination of the full-length, wild-type rP2X7 was completed using a construct previously described containing no truncations or mutations ([16]). Furthermore, the rP2X7-WT construct used for electrophysiology experiments is unmodified full-length, wild-type rP2X7 with no green fluorescent protein (GFP), protease sites, or affinity tags present. The hP2X1-WT, hP2X2-WT, hP2X3-WT, hP2X4-WT, and hP2X7-WT constructs used for electrophysiology are similarly unmodified full-length, wild-type receptor constructs with no GFP, protease sites, or affinity tags present. Mutations to the rP2X7-WT construct used for electrophysiology experiments were made directly in the pcDNA3.1x plasmid. These constructs included the following: rP2X7-K297A, rP2X7-K297G, rP2X7-K297M, rP2X7-K297Q, rP2X7-K297V, rP2X7-Y298A, rP2X7-Y298G, rP2X7-Y298V, rP2X7-Y298L, rP2X7-R316A, rP2X7-R316G, rP2X7-R316Q, rP2X7-R316H, rP2X7-F88A, rP2X7-F103A, and rP2X7-Y295A.
To evaluate the inhibitory response of an antagonist for a dilution series, an initial excitatory signal was evoked at a subtype-specific concentration of ATP. Next, the antagonist was applied at a test concentration for 60 s and then coapplied at the same test concentration of the antagonist with the identical subtype-specific concentration of ATP. The antagonized signal was then normalized against the preceding excitatory signal evoked by ATP for each individual oocyte tested. The pre- and post-antagonist signals were evoked by 10 μM ATP for hP2X1, 10 μM ATP for hP2X2, 1 μM ATP for hP2X3, 50 μM ATP for hP2X4, and 100 μM ATP for P2X7. For the K297V mutation in rP2X7, pre- and post-antagonist signals were evoked by 300 μM ATP. Each dataset was then fit to a nonlinear regression named “[inhibitor] vs. response – Variable slope (four parameters)” in GraphPad Prism 9 to produce a sigmoidal curve and afford an IC50 value. Each singular condition was used to generate an average which is reported plus or minus its SD between three discrete trials.

[2] = biological target: T2, rP2X7 (Rattus norvegicus, UniProt Q64663); test: TEVC recovery of current after complete inhibition (IC100), rP2X7; conditions: 120 s buffer wash, 100 μM ATP
T2 sequence (Q64663 1-595): T1 sequence (Q64663 1-595 F88A) with A88F
Description: Ecocyte Bioscience supplied defolliculated oocytes which were promptly resuspended in modified Barth’s solution containing the following: 88 mM NaCl, 1 mM KCl, 0.82 mM MgSO4, 0.33 mM Ca(NO3)2·4H2O, 0.41 mM CaCl2·2H2O, 2.4 mM NaHCO3, and 5 mM Hepes supplemented with amikacin 250 (mg/liter) and gentamycin (150 mg/liter). Xenopus laevis oocytes were then injected with either hP2X1 (50 nl of 100 ng/μl), hP2X2 (50 nl of 50 ng/μl), hP2X3 (50 nl of 400 ng/μl), hP2X4 (50 nl of 200 ng/μl), hP2X7 (50 nl of 10 ng/μl), or rP2X7 (50 nL of 20 ng/μl or 50 ng/μl) mRNA created from linearized full-length, wild-type or mutant pcDNA 3.1x according to the protocol provided in the mMESSAGE mMACHINE kit (Invitrogen). After injection, the oocytes were allowed to express protein for ~20 hours before recording was performed. Oocytes expressing hP2X4 were allowed to express protein for ~48 hours.
All TEVC data were acquired with an Ooctye Clamp OC-725C amplifier, pClamp 8.2 software, and a gravity-fed RSC-200 Rapid Solution Changer that flowed buffer at ~5 ml/min. For recording, Sutter filamented glass (10 cm in length with an inner diameter of 0.69 mm and an outer diameter of 1.2 mm) was used to impale oocytes and clamp the holding voltage at −60 mV. Recordings for hP2X1, hP2X2, hP2X7, and rP2X7 were performed in buffer with the following: 100 mM NaCl, 2.5 mM KCl, 0.1 mM EDTA, 0.1 mM flufenamic acid, and 5 mM Hepes at pH 7.4. Recordings for hP2X3 and hP2X4 were performed in buffer with the following: 10 mM Hepes (pH 7.4), 140 mM NaCl, 5 mM KCl, 2 mM CaCl2, 2 mM MgCl2, and 10 mM glucose. For TEVC experiments with P2X7, oocytes expressing hP2X7 or rP2X7 were facilitated with 100 μM ATP before recording the final data.
After testing an oocyte with a brief 100 μM ATP excitatory current, an antagonist is applied for 40, 120, or 240 s at IC100 calculated from IC50 values. The oocyte is then treated with 20 s of antagonist at the IC100 plus 100 μM ATP to see complete antagonism. This is followed by 120 s of washing with buffer, ending with a 20-s reapplication of 100 μM ATP. The signal after the reapplication of ATP was then compared to the initial excitatory current to afford a percentage of recovery of activation after complete antagonism. Experiments were run in triplicate. Trials were averaged and errors were reported as SD.

[3] = biological target: T3, hP2X7 (Homo sapiens, UniProt Q99572); test: TEVC recovery of current after complete inhibition (IC100), hP2X7; format: cell-based; design: hP2X7-WT constructs used for electrophysiology are similarly unmodified full-length, wild-type receptor constructs; expressed in transfected cells; host or cells: Xenopus laevis oocytes injected with mRNA made from pcDNA3.1x; conditions: 120 s buffer wash, 100 μM ATP
T3 sequence (Q99572 1-595): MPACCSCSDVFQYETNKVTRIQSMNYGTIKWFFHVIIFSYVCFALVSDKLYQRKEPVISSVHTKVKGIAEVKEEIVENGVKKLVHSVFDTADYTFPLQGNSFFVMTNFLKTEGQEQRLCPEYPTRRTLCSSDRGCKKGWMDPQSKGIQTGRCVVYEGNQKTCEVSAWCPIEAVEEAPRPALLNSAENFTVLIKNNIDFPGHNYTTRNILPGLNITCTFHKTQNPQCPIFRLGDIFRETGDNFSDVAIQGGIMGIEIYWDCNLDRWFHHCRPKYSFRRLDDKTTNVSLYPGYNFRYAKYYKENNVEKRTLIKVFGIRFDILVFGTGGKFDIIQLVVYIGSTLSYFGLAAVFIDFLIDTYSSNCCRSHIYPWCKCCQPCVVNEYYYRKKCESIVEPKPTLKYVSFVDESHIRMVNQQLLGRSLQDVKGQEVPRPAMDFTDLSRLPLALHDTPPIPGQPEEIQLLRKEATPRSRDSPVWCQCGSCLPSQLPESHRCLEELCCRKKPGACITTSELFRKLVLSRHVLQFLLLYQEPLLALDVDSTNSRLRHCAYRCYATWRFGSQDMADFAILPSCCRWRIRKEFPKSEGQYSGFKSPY
Description: Experiments were run in triplicate.

Row | SMILES | IC50 [1] [µM] | Recovery of activation (% of baseline current) ([2]; rP2X7, 40-s IC100 application) [%] | Recovery of activation (% of baseline current) ([2]; rP2X7, 120-s IC100 application) [%] | Recovery of activation (% of baseline current) ([2]; rP2X7, 240-s IC100 application) [%] | Recovery of activation (% of baseline current) ([3]; hP2X7, 40-s IC100 application) [%] | Recovery of activation (% of baseline current) ([3]; hP2X7, 120-s IC100 application) [%] | Recovery of activation (% of baseline current) ([3]; hP2X7, 240-s IC100 application) [%]
1 | Clc1cccc(-c2nnnn2Cc2cccnc2)c1Cl [A438079] | 14 ± 1 | 81 ± 5 | 48 ± 15 | 50 ± 11 |  |  | 
2 | Clc1cccc(-n2nnnc2NCc2ccccc2Oc2ccccn2)c1Cl [A839977] | 1.9 ± 0.2 | 67 ± 6 | 6.7 ± 2 | 1.4 ± 0.3 |  |  | 
3 | O=C(NCC12CC3CC(CC(C3)C1)C2)c1cc(CCCNCCCO)ccc1Cl [AZD9056] | 0.13 ± 0.01 | 82 ± 5 | 47 ± 9 | 29 ± 15 |  |  | 
4 | CN1C(=O)CC[C@H]1C(=O)NCc1cccc(C(F)(F)F)c1Cl [GSK1482160] | 13 ± 3 | 69 ± 4 | 45 ± 6 | 29 ± 9 |  |  | 
5 | O=C(NCC1(N2CCN(c3ccccc3)CC2)CCOCC1)c1cccnc1Sc1ccccc1 [JNJ47965567] | 0.8 ± 0.1 | 1.4 ± 0.2 | 1.6 ± 1 | 2 ± 1 |  |  | 
6 | O=S(=O)(O)c1ccc(N=C2C=CC(=C(c3ccc(Nc4ccc(S(=O)(=O)O)cc4)cc3)c3ccc(Nc4ccc(S(=O)(=O)O)cc4)cc3)C=C2)cc1 [methyl blue] | 5 ± 2 | 53 ± 4 | 15 ± 5 | 4 ± 1 | 34 ± 3 | 17 ± 6 | 2 ± 1
